Assay results from patent US5824699A, “Carbazole inhibitors of Cox-2” (American Home Products Corporation, priority 1998, dated 1998).
Structures can show the parent of a compound that is named as a salt. Where two headings read alike, the source gives them in different places.

Legend:
human COX-2 (rhCOX-2) = biological target: T1, human COX-2 (rhCOX-2) (Homo sapiens, UniProt P35354); test: inhibition of microsomal human recombinant COX-2 (PGH2 converted to PGF2a, quantified by EIA); assay type: biochemical; conditions: for IC50: rhCOX-2, value in parentheses = IC50, 30 μM arachidonic acid, read-out: % Inhib of rhCOX-2 (IC50); for inhibition at 1 µM: rhCOX-2, at 1 μM; for inhibition at 3.3 µM: rhCOX-2, at 3.3 μM (* sodium salt for Example 19); for inhibition at 3 µM: rhCOX-2, at 3 μM
T1 construct: made in house; host or cells: Sf9 or CHO cells (microsomal preparation)
T1 sequence (P35354 18-604): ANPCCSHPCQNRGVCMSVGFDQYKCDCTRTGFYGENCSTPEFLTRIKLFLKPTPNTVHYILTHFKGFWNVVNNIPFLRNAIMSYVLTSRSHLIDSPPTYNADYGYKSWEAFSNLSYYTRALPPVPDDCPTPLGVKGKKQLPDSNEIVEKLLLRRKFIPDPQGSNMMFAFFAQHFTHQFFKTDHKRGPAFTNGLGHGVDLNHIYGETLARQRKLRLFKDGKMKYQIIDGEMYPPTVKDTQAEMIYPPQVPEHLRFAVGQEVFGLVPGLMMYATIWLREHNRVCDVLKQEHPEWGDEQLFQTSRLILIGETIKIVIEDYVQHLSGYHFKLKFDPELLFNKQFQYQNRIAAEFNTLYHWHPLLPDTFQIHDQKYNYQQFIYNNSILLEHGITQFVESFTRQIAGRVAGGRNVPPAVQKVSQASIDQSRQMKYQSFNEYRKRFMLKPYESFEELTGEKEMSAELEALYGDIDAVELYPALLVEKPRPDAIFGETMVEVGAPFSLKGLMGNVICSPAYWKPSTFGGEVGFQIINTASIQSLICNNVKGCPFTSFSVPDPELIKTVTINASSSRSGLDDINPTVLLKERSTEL
Protocol: (§1) The microsomal human recombinant enzymes were diluted with buffer (100 mM Tris, pH 7.8 at 37° C.) containing 0.5 mM phenol (964 μl total volume). The enzyme preparations were preincubated with vehicle (DMSO) or compounds in DMSO (1% DMSO in final assay) for 30 min at […]
(§2) The reaction was incubated for 35 s (maximum level of PGH2 accumulation as determined from time course studies), and terminated by addition of 50-60 μL of SnCl2 (1 mg/ml) in 0.1N HCl. PGH2 is quantitatively converted to PGF2a by this reaction ([…] of total conversion). The pH of each tube is adjusted to pH 3.0-3.5 with 1N NaOH and extracted twice with 1.5 ml of ethyl acetate (75-90% efficiency per extraction). Combined ethyl acetate layers were dried under N2 (g) and redissolved in EIA buffer (2.0 ml), and PGF2a was quantified by EIA.

human COX-1 (rhCOX-1) = biological target: T2, human COX-1 (rhCOX-1) (Homo sapiens, UniProt P23219); test: inhibition of microsomal human recombinant COX-1 (PGH2 converted to PGF2a, quantified by EIA); assay type: biochemical
T2 construct: made in house; host or cells: Sf9 or CHO cells (microsomal preparation)
T2 sequence (P23219 24-599): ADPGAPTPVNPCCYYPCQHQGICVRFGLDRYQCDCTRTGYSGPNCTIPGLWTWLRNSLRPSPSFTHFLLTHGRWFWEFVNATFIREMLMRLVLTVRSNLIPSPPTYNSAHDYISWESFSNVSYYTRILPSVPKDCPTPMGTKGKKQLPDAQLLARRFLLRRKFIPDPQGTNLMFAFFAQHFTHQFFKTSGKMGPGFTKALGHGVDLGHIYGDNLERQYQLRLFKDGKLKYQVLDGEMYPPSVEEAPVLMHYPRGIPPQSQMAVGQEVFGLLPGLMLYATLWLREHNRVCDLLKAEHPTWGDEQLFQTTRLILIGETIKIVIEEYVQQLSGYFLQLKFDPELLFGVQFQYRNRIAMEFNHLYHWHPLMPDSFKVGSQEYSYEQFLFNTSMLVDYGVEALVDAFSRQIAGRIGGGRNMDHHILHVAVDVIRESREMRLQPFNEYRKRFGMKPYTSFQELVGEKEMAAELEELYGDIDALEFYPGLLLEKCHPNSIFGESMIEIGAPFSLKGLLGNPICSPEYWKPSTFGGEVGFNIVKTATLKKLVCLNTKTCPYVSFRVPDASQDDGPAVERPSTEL
Protocol: as §1, §2

[1] = Rogers et al., Neurology 43, 1609-1611 (1993); cited from earlier work
COX-2 = conditions: Glaser et al., Eur. J. Pharmacol. 281, 107-111 (1995); cited from earlier work
[2] = cited from earlier work
prostaglandin synthesis = conditions: Humber et al., J. Med. Chem. 31, 1712-1719 (1988); U.S. Pat. No. 4,686,213; cited from earlier work
[3] = Humber et al., J. Med. Chem. 31, 1712-1719 (1988); cited from earlier work
[4] = Table 1, rhCOX-1, at 90 μM, read-out: % Inhibition of rhCOX-1
[5] = Table 2, read-out: % Inhib of rhCOX-2
[6] = Table 3, read-out: Inhib rhCOX-2
[7] = Table 3, rhCOX-1, at 90 μM (* sodium salt for Example 19), read-out: % Inhib rhCOX-1
[8] = Table 2, rhCOX-1, at 90 μM, read-out: % Inhibn of rhCOX-1
[9] = Table 1, read-out: % Inhib of rhCOX-2

CCCC1(CC(=O)O)OCC(=O)c2c1[nH]c1ccccc21 (stereo not shown) [Example 2, (1-Propyl-4-oxo-1,3,4,9-tetrahydro-pyrano[3,4-b]indol-1-yl)-acetic acid]
IC50 (human COX-2 (rhCOX-2); Table 1): 3.2 µM | inhibition at 90 µM (human COX-1 (rhCOX-1); [4]): 44%

CCC1(CC(=O)O)CCC(=O)c2c1[nH]c1cccc(Cl)c21 (stereo not shown) [Example 12, [1-Ethyl-5-chloro-4-oxo-2,3,4,9-tetrahydro-1H-(carbazol-1-yl)]-acetic acid]
inhibition at 1 µM (human COX-2 (rhCOX-2); [5]): 12% | inhibition at 30 µM (human COX-1 (rhCOX-1); Table 2, rhCOX-1, at 30 μM, read-out: % Inhibn of rhCOX-1): 5%

CCCC1(CC(=O)O)CCC(=O)c2c1[nH]c1cc(F)cc(F)c21 (stereo not shown) [Example 17, (5,7-Difluoro-1-propyl-4-oxo-2,3,4,9-tetrahydro-1H-(carbazol-1-yl))-aceticacid]
inhibition at 1 µM (human COX-2 (rhCOX-2); [5]): 13%

CCc1cccc2c3c([nH]c12)C(CC)(CC(=O)O)CCC3=NO (stereo not shown) [Example 20, (1,8-Diethyl-4-hydroxyimino-2,3,4,9-tetrahydro-1H-carbazol-1-yl)-acetic acid]
inhibition at 1 µM (human COX-2 (rhCOX-2); [6]): 18%

CCCC1(CC(=O)O)CCC(=O)c2c1[nH]c1c(F)ccc(F)c21 (stereo not shown) [Example 16, (5,8-Difluoro-4-oxo-1-propyl-2,3,4,9-tetrahydro-1H-(carbazol-1-yl))-aceticacid]
inhibition at 1 µM (human COX-2 (rhCOX-2); [5]): 29%

CCC1(CC(=O)O)OCC(=O)c2c1[nH]c1cccc(Cl)c21 (stereo not shown) [Example 5, (5-Chloro-1-ethyl-4-oxo-1,3,4,9-tetrahydro-pyrano[3,4-b]indol-1-yl)-aceticacid]
IC50 (human COX-2 (rhCOX-2); Table 1): 1.2 µM

CCc1cccc2c3c([nH]c12)C(CC)(CC(=O)O)OCC3=NO (stereo not shown) [Example 18, [1,8-Diethyl-4-hydroxyimino-1,3,4,9-tetrahydro-pyrano[3.4-b]indol-1-yl]-ace tic acid]
inhibition at 3.3 µM (human COX-2 (rhCOX-2); [6]): 50% | inhibition at 90 µM (human COX-1 (rhCOX-1); [7]): 96%

CCC1(CC(=O)O)CCC(=O)c2c1[nH]c1c(F)ccc(F)c21 (stereo not shown) [Example 13, (1-Ethyl-5,8-difluoro-4-oxo-2,3,4,9-tetrahydro-1H-(carbazol-1-yl))-acetic acid]
inhibition at 1 µM (human COX-2 (rhCOX-2); [5]): 25%

CCc1cccc2c3c([nH]c12)C(CC)(CC(=O)O)OCC3=O (stereo not shown) [Example 4, 1,8-Diethyl-4-oxo-1,3,4,9-tetrahydro-pyrano-[3,4-b]indole-1-acetic acid]
IC50 (human COX-2 (rhCOX-2); Table 1): 1.9 µM | IC50 (human COX-1 (rhCOX-1); Table 1, rhCOX-1, read-out: % Inhibition of rhCOX-1 (value in parentheses, IC50)): > 270 µM

COc1ccc2c(c1)c(CC(=O)O)c(C)n2C(=O)c1ccc(Cl)cc1 [indomethacin]
usefulness in the treatment of Alzheimer's disease [1]: useful in the treatment of Alzheimer's disease | selectivity for inhibition of COX-2 (COX-2): relatively non-selective inhibitor of COX-2 | G.I. safety ([2]; literature): adverse G.I. side effects

CCc1cccc2c3c([nH]c12)C(CC)(CC(=O)O)OCC3=O (stereo not shown) [4-oxo metabolite]
activity in blocking prostaglandin synthesis (prostaglandin synthesis): active in blocking prostaglandin synthesis | oral in vivo antiinflammatory activity [3]: had oral in vivo antiinflammatory activity

CCc1cccc2c3c([nH]c12)C(CC)(CC(=O)O)OCC3 (stereo not shown) [etodolac]
selectivity for inhibition of COX-2 (COX-2): tenfold | G.I. safety ([2]; in vivo): improved G.I. safety

CCc1cccc2c3c([nH]c12)C(CC)(CC(=O)O)CCC3=O (stereo not shown) [Example 10, [1,8-Diethyl-4-oxo-2,3,4,9-tetrahydro-1H-(carbazol-1-yl)]-acetic acid]
IC50 (human COX-2 (rhCOX-2); Table 2): 2 µM | inhibition at 90 µM (human COX-1 (rhCOX-1); [8]): 26%

CCc1cccc2c3c([nH]c12)C(CC)(CC(=O)O)OCC3=NNS(C)(=O)=O (stereo not shown) [Example 19, [1,8-Diethyl-4-(methanesulfonyl-hydrazono)-1,3,4,9-tetrahydro-pyrano [3,4-b]indol-1-yl]-acetic acid sodium salt]
inhibition at 3.3 µM (human COX-2 (rhCOX-2); [6]): 50% | inhibition at 90 µM (human COX-1 (rhCOX-1); [7]): 96%

CCC1(CC(=O)O)CCC(=O)c2c1[nH]c1c(F)c(F)ccc21 (stereo not shown) [Example 14, (7.8-Difluoro-1-ethyl-4-oxo-2,3,4,9-tetrahydro-1H-(carbazol-1-yl))-acetic acid]
IC50 (human COX-2 (rhCOX-2); Table 2): 0.7 µM | inhibition at 23 µM (human COX-1 (rhCOX-1); Table 2, rhCOX-1, at 23 μM, read-out: % Inhibn of rhCOX-1): 50%

C=CCC1(CC(=O)O)CCC(=O)c2c1[nH]c1c(F)ccc(F)c21 (stereo not shown) [Example 15, (1-Allyl-5,8-difluoro-4-oxo-2,3,4,9-tetrahydro-1H-(carbazol-1-yl))-acetic acid]
inhibition at 1 µM (human COX-2 (rhCOX-2); [5]): 30%

CCC1(CC(=O)O)CCC(=O)c2c1[nH]c1ccccc21 (stereo not shown) [Example 9, [1-Ethyl-4oxo-2,3,4,9-tetrahydro-1H-(carbazol-1-yl)]-acetic acid]
inhibition at 3 µM (human COX-2 (rhCOX-2); [5]): 26%

C=CCc1c(F)ccc2c3c([nH]c12)C(CC)(CC(=O)O)OCC3=O (stereo not shown) [Example 8, 8-Allyl-1-ethyl-7-fluoro-4-oxo-1,3,4,9-tetrahydropyrano[3,4-b]indole-1-acetic acid]
IC50 (human COX-2 (rhCOX-2); Table 1): 0.37 µM | inhibition at 3 µM (human COX-1 (rhCOX-1); Table 1, rhCOX-1, at 3 μM): 78%

CCC1(CC(=O)O)CCC(=O)c2c1[nH]c1c(C(C)C)cccc21 (stereo not shown) [Example 11, [1-Ethyl-8-isopropyl-4-oxo-2,3,4,9-tetrahydro-1H-(carbazol-1-yl)]-acetic acid]
inhibition at 3 µM (human COX-2 (rhCOX-2); [5]): 40% | inhibition at 90 µM (human COX-1 (rhCOX-1); [8]): 85%

COCC1(CC(=O)O)OCC(=O)c2c1[nH]c1ccccc21 (stereo not shown) [Example 3, (1-Methoxymethyl-4-oxo-1,3,4,9-tetrahydro-pyrano[3,4-b]indol-1-yl)-acetic acid]
inhibition at 3 µM (human COX-2 (rhCOX-2); [9]): 8%

CCC1(CC(=O)O)OCC(=O)c2c1[nH]c1cccc(Br)c21 (stereo not shown) [Example 6, (5-Bromo-1-ethyl-4-oxo-1,3,4,9-tetrahydro-pyrano[3,4-b]indol-1-yl)-acetic acid]
IC50 (human COX-2 (rhCOX-2); Table 1): 1.1 µM

CCC1(CC(=O)O)OCC(=O)c2c1[nH]c1cccc(C#N)c21 (stereo not shown) [Example 7, 5-Cyano-1-ethyl-4-oxo-1,3,4,9-tetrahydropyrano[3,4-b]indole-1-acetic acid]
inhibition at 1 µM (human COX-2 (rhCOX-2); [9]): 7%

CCC1(CC(=O)O)OCC(=O)c2c1[nH]c1ccccc21 (stereo not shown) [Example 1, (1-Ethyl-4-oxo-1,3,4,9-tetrahydro-pyrano[3,4-b]indol-1-yl)-acetic acid]
IC50 (human COX-2 (rhCOX-2); Table 1): 2.1 µM | inhibition at 90 µM (human COX-1 (rhCOX-1); [4]): 43%
